In brackets after ≈: the same amount, converted by molar mass.
The compounds below were run on Clostridium difficile (Isolate ID ATCC 9689) (assay: Bacterial Assay: Determination of Antibacterial Activity (MIC, broth microdilution or agar dilution)). Conditions: Clostridioides difficile, ATCC9689, 48 h, read-out: C. difficile MIC Activity Range.
Type: cell-based
Summary of the method: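 MICs were set by CLSI broth microdilution or agar dilution for anaerobes, read visually after 48 hours at 37° C. under anaerobic gas packs. Medium was reinforced clostridial medium with 0.1% defibrinated horse blood; values are binned as A ≦1.01, B >1.0-4.0, C >4.0-16 μg/mL.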

Row | SMILES | MIC [µg/mL]
1 | Cn1c(CNC(=O)OCC(Oc2ccc(F)c(C(N)=O)c2F)c2nc(-c3ccc(C(F)(F)F)cc3)c(Br)o2)nc2ccccc21 (centres unmarked) [Compound 85, 2-{5-bromo-4-[4-(trifluoromethyl)phenyl]-1,3-oxazol-2-yl}-2-(3-carbamoyl-2,4-difluorophenoxy)ethyl [(1-methyl-1H-benzimidazol-2-yl)methyl]carbamate] | 1 to 4 (≈ 1.44 to 5.76 µM)
2 | Cc1ccc(CNC(=O)OCC(Oc2ccc(F)c(C(N)=O)c2F)c2nc(-c3ccc(C(F)(F)F)cc3)c(Br)o2)n1C (centres unmarked) [Compound 86, 2-{5-bromo-4-[4-(trifluoromethyl)phenyl]-1,3-oxazol-2-yl}-2-(3-carbamoyl-2,4-difluorophenoxy)ethyl [(1,5-dimethyl-1H-pyrrol-2-yl)methyl]carbamate] | 1 to 4 (≈ 1.52 to 6.08 µM)
3 | Cc1cc(CNC(=O)OCC(Oc2ccc(F)c(C(N)=O)c2F)c2nc(-c3ccc(C(F)(F)F)cc3)c(Br)o2)n(C)n1 (centres unmarked) [Compound 87, 2-{5-bromo-4-[4-(trifluoromethyl)phenyl]-1,3-oxazol-2-yl}-2-(3-carbamoyl-2,4-difluorophenoxy)ethyl [(1,3-dimethyl-1H-pyrazol-5-yl)methyl]carbamate] | 1 to 4 (≈ 1.52 to 6.08 µM)
4 | Cc1cc(CNC(=O)OCC(Oc2ccc(F)c(C(N)=O)c2F)c2nc(-c3ccc(C(F)(F)F)cc3)c(Br)o2)nn1C (centres unmarked) [Compound 88, 2-{5-bromo-4-[4-(trifluoromethyl)phenyl]-1,3-oxazol-2-yl}-2-(3-carbamoyl-2,4-difluorophenoxy)ethyl [(1,5-dimethyl-1H-pyrazol-3-yl)methyl]carbamate] | 1 to 4 (≈ 1.52 to 6.08 µM)
5 | Cc1ccc(CNC(=O)OCC(Oc2ccc(F)c(C(N)=O)c2F)c2nc(-c3ccc(C(F)(F)F)cc3)c(Br)o2)cn1 (centres unmarked) [Compound 89, 2-{5-bromo-4-[4-(trifluoromethyl)phenyl]-1,3-oxazol-2-yl}-2-(3-carbamoyl-2,4-difluorophenoxy)ethyl [(6-methylpyridin-3-yl)methyl]carbamate] | < 1.01
6 | Cc1ncccc1CNC(=O)OCC(Oc1ccc(F)c(C(N)=O)c1F)c1nc(-c2ccc(C(F)(F)F)cc2)c(Br)o1 (centres unmarked) [Compound 90, 2-{5-bromo-4-[4-(trifluoromethyl)phenyl]-1,3-oxazol-2-yl}-2-(3-carbamoyl-2,4-difluorophenoxy)ethyl [(2-methylpyridin-3-yl)methyl]carbamate] | < 1.01
7 | Cc1cnccc1CNC(=O)OCC(Oc1ccc(F)c(C(N)=O)c1F)c1nc(-c2ccc(C(F)(F)F)cc2)c(Br)o1 (centres unmarked) [Compound 91, 2-{5-bromo-4-[4-(trifluoromethyl)phenyl]1,3-oxazol-2-yl}-2-(3-carbamoyl-2,4-difluorophenoxy)ethyl [(3-methylpyridin-4-yl)methyl]carbamate] | < 1.01
8 | NC(=O)c1c(F)ccc(OC(COC(=O)NCCn2ccccc2=O)c2nc(-c3ccc(C(F)(F)F)cc3)c(Br)o2)c1F (centres unmarked) [Compound 92, 2-{5-bromo-4-[4-(trifluoromethyl)phenyl]-1,3-oxazol-2-yl}-2-(3-carbamoyl-2,4-difluorophenoxy)ethyl [2-(2-oxopyridin-1(2H)-yl)ethyl]carbamate] | 1 to 4 (≈ 1.49 to 5.96 µM)
9 | NC(=O)c1c(F)ccc(OC(CO)c2nc(-c3ccc(F)cc3F)c(Br)o2)c1F (centres unmarked) [Compound 99, 3-{1-[5-bromo-4-(2,4-difluorophenyl)-1,3-oxazol-2-yl]-2-hydroxyethoxy}-2,6-difluorobenzamide] | < 1.01
10 | NC(=O)c1c(F)ccc(OC(CO)c2nc(-c3ccc(Br)s3)c(Br)o2)c1F (centres unmarked) [Compound 100, 3-{1-[5-bromo-4-(5-bromothiophen-2-yl)-1,3-oxazol-2-yl]-2-hydroxyethoxy}-2,6-difluorobenzamide] | 1 to 4 (≈ 1.91 to 7.63 µM)
11 | CNCNC(=O)c1c(F)ccc(OCc2nc3cc(Cl)cnc3s2)c1F [Compound 103] | 4 to 16 (≈ 10 to 40.1 µM)
12 | CCCCCCCCCOc1ccc(F)c(C(=N)N)c1F [Compound 107, 2,6-difluoro-3-(nonyloxy)benzenecarboximidamide] | 4 to 16 (≈ 13.4 to 53.6 µM)
13 | NC(=O)c1c(F)ccc(OCCCc2nc3cc(Cl)ccc3s2)c1F [Compound 109, 3-[3-(5-chloro-1,3-benzothiazol-2-yl)propoxy]-2,6-difluorobenzamide] | 1 to 4 (≈ 2.61 to 10.4 µM)
14 | NC(=O)c1c(F)ccc(OCCCc2nc(-c3ccc(C(F)(F)F)cc3)cs2)c1F [Compound 113, 2,6-difluoro-3-(3-{4-[4-(trifluoromethyl)phenyl]-1,3-thiazol-2-yl}propoxy)benzamide] | 1 to 4 (≈ 2.26 to 9.04 µM)
15 | NC(=O)c1c(F)ccc(OCCCc2nc(-c3ccc(OC(F)F)cc3)cs2)c1F [Compound 114, 3-(3-{4-[4-(difluoromethoxy)phenyl]-1,3-thiazol-2-yl}propoxy)-2,6-difluorobenzamide] | 1 to 4 (≈ 2.27 to 9.08 µM)
16 | NC(=O)c1c(F)ccc(OCCCc2nc(-c3ccc(OC(F)(F)F)cc3)cs2)c1F [Compound 115, 2,6-difluoro-3-(3-{4-[4-(trifluoromethoxy)phenyl]-1,3-thiazol-2-yl}propoxy)benzamide] | 1 to 4 (≈ 2.18 to 8.73 µM)
17 | NC(=O)c1c(F)ccc(OCCCc2nc(-c3ccc(S(F)(F)(F)(F)F)cc3)cs2)c1F [Compound 116, 2,6-difluoro-3-(3-{4-[4-(pentafluoro-lambda~6~- sulfanyl)phenyl]-1,3-thiazol-2-yl}propoxy)benzamide] | 1 to 4 (≈ 2 to 7.99 µM)
18 | NC(=O)c1c(F)ccc(OCCc2nc(-c3ccc(OC(F)(F)F)cc3)no2)c1F [Compound 117, 2,6-difluoro-3-(2-{3-[4-(trifluoromethoxy)phenyl]-1,2,4-oxadiazol-5-yl}ethoxy)benzamide] | < 1.01
19 | NC(=O)c1c(F)ccc(OCCc2nc(-c3ccc(S(F)(F)(F)(F)F)cc3)no2)c1F [Compound 118, 2,6-difluoro-3-(2-{3-[4-(pentafluoro-lambda~6~- sulfanyl)phenyl]-1,2,4-oxadiazol-5-yl}ethoxy)benzamide] | < 1.01
20 | N/C(=N\O)c1c(F)ccc(OCc2nc(-c3ccc(OC(F)(F)F)cc3)ns2)c1F [Compound 119, 2,6-difluoro-N′-hydroxy-3-({3-[4-(trifluoromethoxy)phenyl]-1,2,4-thiadiazol-5-yl}methoxy)benzenecarboximidamide] | 1 to 4 (≈ 2.24 to 8.96 µM)
21 | NC(=O)c1c(F)ccc(OCc2nc(-c3ccc(S(F)(F)(F)(F)F)cc3)no2)c1F [Compound 120, 2,6-difluoro-3-({3-[4-(pentafluoro-lambda~6~- sulfanyl)phenyl]-1,2,4-oxadiazol-5-yl}methoxy)benzamide] | 4 to 16 (≈ 8.75 to 35 µM)
22 | NC(=O)c1c(F)ccc(OCc2nc(-c3ccc(S(F)(F)(F)(F)F)cc3)co2)c1F [Compound 121, 2,6-difluoro-3-({4-[4-(pentafluoro-lambda~6~- sulfanyl)phenyl]-1,3-oxazol-2-yl}methoxy)benzamide] | 1 to 4 (≈ 2.19 to 8.77 µM)
23 | NC(=O)c1c(F)ccc(NCc2nc(-c3ccc(C(F)(F)F)cc3)cs2)c1F [Compound 122, 2,6-difluoro-3-[({4-[4-(trifluoromethyl)phenyl]-1,3-thiazol-2-yl}methyl)amino]benzamide] | < 1.01
24 | CCCCCCCCCNc1ccc(F)c(C(N)=O)c1F [Compound 123, 2,6-difluoro-3-(nonylamino)benzamide] | 1 to 4 (≈ 3.35 to 13.4 µM)
25 | NC(=O)c1c(F)ccc(OCCCOc2ccc(Cl)cc2)c1F [Compound 124, 3-[3-(4-chlorophenoxy)propoxy]-2,6-difluorobenzamide] | 1 to 4 (≈ 2.93 to 11.7 µM)
26 | NC(=O)c1c(F)ccc(OCCCOc2ccc(C(F)(F)F)cc2)c1F [Compound 125, 2,6-difluoro-3-{3-[4-(trifluoromethyl)phenoxy]propoxy}benzamide] | 1 to 4 (≈ 2.66 to 10.7 µM)
